# Laboratory results as given in article PMC3530927 (Journal of medicinal chemistry, 2012).
# How the values were obtained:
# KCNQ2 channels = KCNQ2 channels (Homo sapiens, UniProt O43526); experiment: KCNQ2 automated patch clamp assay; type: cell-based; conditions: for inhibition at 30 µM: read-out: KCNQ2 % at 30 μM (IC50 column, saturating response not obtained); for fold loss of potency: KCNQ2 inhibitor, compared to the unsubstituted phenyl group (5)
# Intrinsic clearance = type: in vitro ADME; conditions: rat hepatic microsomes
# [1] = Snapshot in vivo PK, IP plasma and brain levels; conditions: brain, 10 mg/kg
# calcium channel, L-type = experiment: Ricerca Lead Profiling Screen radioligand binding
# calcium channel, N-type = calcium channel, N-type (Homo sapiens, UniProt Q00975); experiment: Ricerca Lead Profiling Screen radioligand binding
# Sequence of calcium channel, N-type (Q00975 whole entry): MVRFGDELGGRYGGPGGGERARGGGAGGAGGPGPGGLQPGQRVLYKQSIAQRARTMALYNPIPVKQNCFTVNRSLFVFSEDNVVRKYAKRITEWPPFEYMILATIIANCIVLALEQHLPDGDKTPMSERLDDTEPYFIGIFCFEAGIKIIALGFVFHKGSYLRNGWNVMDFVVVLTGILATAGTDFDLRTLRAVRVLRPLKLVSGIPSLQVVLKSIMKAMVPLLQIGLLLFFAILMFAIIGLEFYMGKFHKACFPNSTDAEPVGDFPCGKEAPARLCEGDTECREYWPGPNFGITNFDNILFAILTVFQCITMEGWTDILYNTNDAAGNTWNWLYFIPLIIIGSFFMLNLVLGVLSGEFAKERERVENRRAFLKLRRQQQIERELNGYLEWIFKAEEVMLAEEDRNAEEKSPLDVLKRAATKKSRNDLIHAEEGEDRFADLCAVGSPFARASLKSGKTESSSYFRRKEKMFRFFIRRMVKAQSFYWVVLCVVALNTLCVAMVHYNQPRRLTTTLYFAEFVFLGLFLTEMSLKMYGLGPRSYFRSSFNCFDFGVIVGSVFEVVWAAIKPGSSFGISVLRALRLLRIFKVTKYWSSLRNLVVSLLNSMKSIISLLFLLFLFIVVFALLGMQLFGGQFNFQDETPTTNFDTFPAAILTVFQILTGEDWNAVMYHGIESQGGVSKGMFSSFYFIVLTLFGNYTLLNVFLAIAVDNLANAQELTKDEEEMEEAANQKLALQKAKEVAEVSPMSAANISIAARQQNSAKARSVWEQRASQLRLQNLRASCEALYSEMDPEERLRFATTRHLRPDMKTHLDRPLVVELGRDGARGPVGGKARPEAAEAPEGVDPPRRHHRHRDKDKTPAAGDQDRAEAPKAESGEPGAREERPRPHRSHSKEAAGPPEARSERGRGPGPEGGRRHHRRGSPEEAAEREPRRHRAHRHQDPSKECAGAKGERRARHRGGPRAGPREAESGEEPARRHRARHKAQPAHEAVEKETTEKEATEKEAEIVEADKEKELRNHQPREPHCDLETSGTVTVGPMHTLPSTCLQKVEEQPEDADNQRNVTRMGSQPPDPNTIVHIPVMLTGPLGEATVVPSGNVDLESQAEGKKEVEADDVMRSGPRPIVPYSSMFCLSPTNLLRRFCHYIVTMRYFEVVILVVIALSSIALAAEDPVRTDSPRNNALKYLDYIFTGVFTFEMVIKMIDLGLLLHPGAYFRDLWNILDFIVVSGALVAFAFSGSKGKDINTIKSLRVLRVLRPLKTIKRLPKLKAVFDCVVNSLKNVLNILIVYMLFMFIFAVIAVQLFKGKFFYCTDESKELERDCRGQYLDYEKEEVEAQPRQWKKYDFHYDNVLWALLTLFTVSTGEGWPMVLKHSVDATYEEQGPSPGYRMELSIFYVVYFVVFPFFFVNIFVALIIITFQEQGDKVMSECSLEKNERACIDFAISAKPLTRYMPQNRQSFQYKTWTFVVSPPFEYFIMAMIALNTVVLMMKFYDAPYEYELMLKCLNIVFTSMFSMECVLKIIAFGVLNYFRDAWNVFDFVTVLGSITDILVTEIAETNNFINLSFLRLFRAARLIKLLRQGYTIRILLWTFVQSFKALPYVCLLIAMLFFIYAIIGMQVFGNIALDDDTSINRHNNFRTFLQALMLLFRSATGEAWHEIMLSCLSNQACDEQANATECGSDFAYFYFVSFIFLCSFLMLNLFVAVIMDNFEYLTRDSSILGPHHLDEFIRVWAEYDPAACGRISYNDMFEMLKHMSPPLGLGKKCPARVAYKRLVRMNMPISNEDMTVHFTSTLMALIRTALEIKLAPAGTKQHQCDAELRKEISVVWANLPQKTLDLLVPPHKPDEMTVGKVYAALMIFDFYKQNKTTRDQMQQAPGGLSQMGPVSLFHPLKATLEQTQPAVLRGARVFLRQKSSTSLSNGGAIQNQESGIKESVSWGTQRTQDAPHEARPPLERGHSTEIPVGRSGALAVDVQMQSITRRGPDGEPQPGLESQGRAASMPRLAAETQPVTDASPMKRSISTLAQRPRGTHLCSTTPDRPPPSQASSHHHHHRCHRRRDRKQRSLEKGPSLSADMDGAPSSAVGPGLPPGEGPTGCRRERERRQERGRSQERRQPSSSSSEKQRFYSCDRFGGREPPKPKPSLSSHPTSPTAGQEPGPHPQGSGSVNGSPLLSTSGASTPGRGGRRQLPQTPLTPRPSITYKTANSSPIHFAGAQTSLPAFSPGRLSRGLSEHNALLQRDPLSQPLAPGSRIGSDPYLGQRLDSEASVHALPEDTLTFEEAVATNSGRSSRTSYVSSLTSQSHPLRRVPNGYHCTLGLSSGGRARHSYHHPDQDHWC
# potassium channel (KATP) = experiment: Ricerca Lead Profiling Screen radioligand binding
# potassium channel (hERG) = potassium channel (hERG) (Homo sapiens, UniProt Q12809); experiment: Ricerca Lead Profiling Screen radioligand binding
# Sequence of potassium channel (hERG) (Q12809 whole entry): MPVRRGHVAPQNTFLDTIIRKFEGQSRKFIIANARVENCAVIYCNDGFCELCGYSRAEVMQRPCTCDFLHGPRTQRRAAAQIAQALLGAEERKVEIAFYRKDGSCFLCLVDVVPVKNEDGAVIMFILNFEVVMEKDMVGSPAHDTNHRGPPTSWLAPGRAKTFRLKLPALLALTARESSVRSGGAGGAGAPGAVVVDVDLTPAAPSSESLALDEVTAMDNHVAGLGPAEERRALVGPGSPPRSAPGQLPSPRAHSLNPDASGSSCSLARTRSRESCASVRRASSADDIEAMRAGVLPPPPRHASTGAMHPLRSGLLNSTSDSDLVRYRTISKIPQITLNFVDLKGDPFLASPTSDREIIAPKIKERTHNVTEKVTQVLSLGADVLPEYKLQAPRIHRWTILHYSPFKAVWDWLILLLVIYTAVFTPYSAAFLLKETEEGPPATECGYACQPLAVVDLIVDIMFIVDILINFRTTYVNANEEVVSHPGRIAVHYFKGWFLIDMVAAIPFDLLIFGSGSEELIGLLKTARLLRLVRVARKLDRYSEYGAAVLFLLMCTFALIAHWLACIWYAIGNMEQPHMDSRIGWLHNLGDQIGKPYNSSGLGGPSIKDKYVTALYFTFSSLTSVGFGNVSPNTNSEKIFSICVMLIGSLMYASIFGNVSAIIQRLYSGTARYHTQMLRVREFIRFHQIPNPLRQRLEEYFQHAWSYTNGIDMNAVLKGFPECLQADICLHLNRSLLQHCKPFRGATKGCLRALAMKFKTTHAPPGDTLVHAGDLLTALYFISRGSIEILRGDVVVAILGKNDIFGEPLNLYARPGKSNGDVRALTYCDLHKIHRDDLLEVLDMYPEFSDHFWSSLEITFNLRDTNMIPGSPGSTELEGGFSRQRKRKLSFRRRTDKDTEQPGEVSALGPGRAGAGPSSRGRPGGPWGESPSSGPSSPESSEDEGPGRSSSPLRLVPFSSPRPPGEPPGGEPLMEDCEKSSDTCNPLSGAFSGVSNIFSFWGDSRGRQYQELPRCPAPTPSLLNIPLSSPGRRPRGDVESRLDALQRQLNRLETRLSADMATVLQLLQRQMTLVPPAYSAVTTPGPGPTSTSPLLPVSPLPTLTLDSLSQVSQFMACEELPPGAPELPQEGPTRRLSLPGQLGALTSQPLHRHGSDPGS
# [2] = >300 assays performed within the MLPCN network; conditions: weakly active in each of four assays out of >300
# [3] = KCNQ2, common assay system (PubChem AID: 588426) vs reported values
SMILES,inhibition at 30 µM (KCNQ2 channels) [%],KCNQ2 activity (in words) (KCNQ2 channels),further results
CCC(C(=O)N(C)c1ccccc1N1CCCC1)c1ccccc1 (stereo not drawn) [compound 18],,complete loss of activity,
CCC(C(=O)Nc1ccccc1N(C)C)c1ccccc1 (stereo not drawn) [compound 56],59.8,,
CCC(C(=O)Nc1ccccc1N1CCCC1)c1ccccc1Cl (stereo not drawn) [compound 30],,,fold loss of potency (KCNQ2 channels): 20 fold
O=C(Cc1cccc(Cl)c1)Nc1ccccc1N1CCCCC1 [compound 49],,loss of activity,
"CC[C@H](C(=O)Nc1ccccc1N1CCCC1)c1ccccc1 [(S)-5, (S)-2-Phenyl-N-(2-(pyrrolidin-1-yl)phenyl)butanamide]",,,"Rat CLHEP (Intrinsic clearance): 67.3 mL/min/kg; concentration at 1 h [1]: 672 nM; calcium channel L-type binding (in words) (calcium channel, L-type): not inhibited; calcium channel N-type binding (in words) (calcium channel, N-type): not inhibited; potassium channel KATP binding (in words) (potassium channel (KATP)): not inhibited; potassium channel hERG binding (in words) (potassium channel (hERG)): not inhibited"
"O=C1c2ccccc2C(Cc2ccncc2)(Cc2ccncc2)c2ccccc21 [compound 1, XE-991, reference compound]",,,fold more potent compared to previous values (KCNQ2 channels; [3]): 8 – 10 fold
"O=C1N(c2ccccc2)c2ccccc2C1(Cc1ccncc1)Cc1ccncc1 [compound 2, Linopirdine, reference compound]",,,fold more potent compared to previous values (KCNQ2 channels; [3]): 8 – 10 fold
CCC(C(=O)Nc1ccccc1N(C)Cc1ccccc1)c1ccccc1 (stereo not drawn) [compound 64],27.1,,
O=C(Nc1ccccc1N1CCCC1)C1CCOc2ccccc21 (stereo not drawn) [compound 16],,not tolerated,
O=C(Nc1ccccc1N1CCCC1)C1(c2ccccc2)CC1 [compound 14],,not tolerated,
CCC(C(=O)Nc1ccccc1N1CCCC1)c1ccccc1 (stereo not drawn) [compound 5],,,activity in four MLPCN assays not dependent on KCNQ2 [2]: > 15 µM
"c1ccc(C(NCc2cccnc2)(c2ccccc2)c2ccccc2)cc1 [compound 3, UCL2077, reference compound]",,,fold less potent compared to previous values (KCNQ2 channels; [3]): ~ 7 fold
CC(C)(C(=O)Nc1ccccc1N1CCCC1)c1ccccc1 [compound 15],,not tolerated,
CCC(C(=O)Nc1ccccc1N1CCCC1)c1ccc(OC)c(OC)c1 (stereo not drawn) [compound 19],,,fold loss of potency (KCNQ2 channels): 125 fold
O=C(Cc1cccc(Cl)c1)Nc1cccc(N2CCCC2)c1 [compound 45],,,"fold loss of activity (KCNQ2 channels; KCNQ2 activator series, 3-pyrrolidine vs 2-pyrrolidine): ~ 5 fold"

# Now from value to compound, other results behind:
inhibition at 30 µM (KCNQ2 channels) [%],SMILES,KCNQ2 activity (in words) (KCNQ2 channels),further results
28.1,CCC(C(=O)Nc1ccccc1OC)c1ccccc1 (stereo not drawn) [compound 63],,
38,CCC(NC(=O)c1ccccc1N1CCCC1)c1ccccc1 (stereo not drawn) [compound 17],complete loss of activity,
25.4,CC(C)C(C(=O)Nc1ccccc1N1CCCC1)c1ccccc1 (stereo not drawn) [compound 9],not tolerated,
32,CCC(C(=O)Nc1ccccc1N1CCCCC1)c1ccccc1 (stereo not drawn) [compound 48],loss of activity,
